Laboratory results taken from patent US11319299B2, “Substituted carboxamides as inhibitors of WDR5 protein-protein binding” (PROPELLON THERAPEUTICS INC., priority 2016, dated 2022).
Where two headings read alike, the source gives them in different places.

Legend:
WDR5 = WDR5 (Homo sapiens (Human), UniProt P61964); assay: Surface Plasmon Resonance (SPR) assay, KD and residence time; type: binding; conditions: read-out: WDR5 binding affinity (KD)
MV4-11 cells = assay: Cell proliferation assay (ATPlite); type: cell-based; conditions: MV-411 cells, five days, read-out: In vitro whole cell potency in MV-411 cells, (IC50)
Protocol: (iv) Cell Proliferation Assay
MV4-11 cells were seeded into a 96-well plate at 1,000 cells/well in 150 μl medium (Alpha-MEM containing 10% FBS, 100 μg/ml Normocin, and 50 μg/ml Gentamycin, Invitrogen). A HP D300 digital dispenser was used to dose cells with DMSO or test compounds across a 10-point range of concentrations (high dose of 10 μM), and cultures were grown in a humidified 5% CO2 incubator at 37° C. After five days, plates were removed from the incubator and equilibrated to room temperature. An equal volume of ATPlite assay reagent was added to each well, and samples were processed according to manufacturer's instructions (Perkin Elmer). Luminescent signal was measured using an Envision plate reader equipped with a US-Luminescence detector.

[1] = surface plasmon resonance (SPR)
[2] = surface plasmon resonance (SPR) assay

Molecule | Kd (WDR5; [1]) [nM] | IC50 (MV4-11 cells) [nM] | IC50 (MV4-11 cells; Homo sapiens, MV4-11, 120 h) [nM] | Kd (WDR5; [2]) [nM]
4-(difluoromethyl)-N-[4-fluoro-5-[2-[(3R)-3-methylmorpholin-4-yl]pyrimidin-5-yl]-2-[(3S,5R)-3,4,5-trimethylpiperazin-1-yl]phenyl]-6-oxo-1H-pyridine-3-carboxamide [Example 521] | 0.579 | 68 | – | –
C[C@@H]1CN(c2ncc(-c3cc(NC(=O)c4ccc(F)cc4C(F)(F)F)c(N4CCN(C)[C@@H](C)C4)cc3F)cn2)C[C@H](C)O1 (racemic) [Example 430, 4-fluoro-N-[4-fluoro-5-[2-[(2R,6S)-2,6-dimethylmorpholin-4-yl]pyrimidin-5-yl]-2-[(3R)-3,4-dimethylpiperazin-1-yl]phenyl]-2-(trifluoromethyl)benzamide] | 0.296 | – | 49 | –
C[C@@H]1CN(c2cc(F)c(-c3cnc(N4CCO[C@@H](C)C4)nc3)cc2NC(=O)c2cn(C)c(=O)cc2C(F)(F)F)C[C@H](C)N1C (racemic) [Example 451, N-[4-fluoro-5-[2-[(2R)-2-methylmorpholin-4-yl]pyrimidin-5-yl]-2-[(3S,5R)-3,4,5-trimethylpiperazin-1-yl]phenyl]-1-methyl-6-oxo-4-(trifluoromethyl)pyridine-3-carboxamide] | 1.72 | – | 92 | –
CC1CN(c2cc(F)c(-c3cnc(C#N)nc3)cc2NC(=O)c2c[nH]c(=O)cc2C(F)(F)F)CCN1C (stereo in doubt) [Example 197, N-[5-(2-cyanopyrimidin-5-yl)-4-fluoro-2-[(3R)-3,4-dimethylpiperazin-1-yl]phenyl]-6-oxo-4-(trifluoromethyl)-1H-pyridine-3-carboxamide] | – | – | 44 | 0.681
CC1CN(c2cc(F)c(-c3cnc(N4C[C@@H](C)O[C@@H](C)C4)nc3)cc2NC(=O)c2c[nH]c(=O)cc2C(F)(F)F)CCN1C (stereo in doubt) [Example 202, N-[4-fluoro-5-[2-[(2R,6S)-2,6-dimethylmorpholin-4-yl]pyrimidin-5-yl]-2-[(3R)-3,4-dimethylpiperazin-1-yl]phenyl]-6-oxo-4-(trifluoromethyl)-1H-pyridine-3-carboxamide] | – | – | 20 | 0.434
CC1CN(c2cc(F)c(-c3cnc(N4CCN(C)CC4)nc3)cc2NC(=O)c2cn(C)c(=O)cc2C(F)(F)F)CCN1C (stereo in doubt) [Example 279, N-[4-fluoro-5-[2-(4-methylpiperazin-1-yl)pyrimidin-5-yl]-2-[(3R)-3,4-dimethylpiperazin-1-yl]phenyl]-1-methyl-6-oxo-4-(trifluoromethyl)pyridine-3-carboxamide] | – | – | 118 | 2.08
CC1CN(c2cc(F)c(-c3ccc(N4C[C@@H](C)O[C@@H](C)C4)nc3)cc2NC(=O)c2c[nH]c(=O)cc2C(F)(F)F)CCN1C (stereo in doubt) [Example 341, N-[4-fluoro-5-[6-[(2R,6S)-2,6-dimethylmorpholin-4-yl]pyridin-3-yl]-2-[(3R)-3,4-dimethylpiperazin-1-yl]phenyl]-6-oxo-4-(trifluoromethyl)-1H-pyridine-3-carboxamide] | – | – | 52 | 1.97
CC(C)C1CN(c2ncc(-c3cc(NC(=O)c4c[nH]c(=O)cc4C(F)(F)F)c(N4C[C@@H](C)N(C)[C@@H](C)C4)cc3F)cn2)CCO1 (stereo in doubt) [Example 348, N-[4-fluoro-5-[2-[(2R)-2-propan-2-ylmorpholin-4-yl]pyrimidin-5-yl]-2-[(3S,5R)-3,4,5-trimethylpiperazin-1-yl]phenyl]-6-oxo-4-(trifluoromethyl)-1H-pyridine-3-carboxamide] | – | – | 42 | 2.28
CC1CN(c2cc(F)c(-c3cnc(N4C[C@@H](C)O[C@@H](C)C4)nc3)cc2NC(=O)c2cn(C)c(=O)cc2C(F)F)CCN1C (stereo in doubt) [Example 383, 4-(difluoromethyl)-N-[4-fluoro-5-[2-[(2R,6S)-2,6-dimethylmorpholin-4-yl]pyrimidin-5-yl]-2-[(3R)-3,4-dimethylpiperazin-1-yl]phenyl]-1-methyl-6-oxopyridine-3-carboxamide] | – | – | 149 | 1.19
C[C@@H]1CN(c2ncc(-c3cc(NC(=O)c4c[nH]c(=O)cc4C(F)F)c(N4CCN(C)[C@H](C)C4)cc3F)cn2)CCO1 (stereo in doubt) [Example 398, 4-(difluoromethyl)-N-[4-fluoro-2-[(3R)-3,4-dimethylpiperazin-1-yl]-5-[2-[(2R)-2-methylmorpholin-4-yl]pyrimidin-5-yl]phenyl]-6-oxo-1H-pyridine-3-carboxamide] | 0.899 | – | 44 | –
CC1CN(c2cc(F)c(-c3cnc(N4CCOCC4)nc3)cc2NC(=O)c2c[nH]c(=O)cc2C(F)F)CCN1C (stereo in doubt) [Example 410, 4-(difluoromethyl)-N-[4-fluoro-5-(2-morpholin-4-ylpyrimidin-5-yl)-2-[(3R)-3,4-dimethylpiperazin-1-yl]phenyl]-6-oxo-1H-pyridine-3-carboxamide] | 0.84 | – | 63 | –
CCN(C)C1CCN(c2cc(F)c(-c3cnc(N4C[C@@H](C)O[C@@H](C)C4)nc3)cc2NC(=O)c2c[nH]c(=O)cc2C(F)(F)F)C1 (stereo in doubt) [Example 418, N-[4-fluoro-5-[2-[(2R,6S)-2,6-dimethylmorpholin-4-yl]pyrimidin-5-yl]-2-[(3S)-3-[ethyl(methyl)amino]pyrrolidin-1-yl]phenyl]-6-oxo-4-(trifluoromethyl)-1H-pyridine-3-carboxamide] | 1.05 | – | 70 | –
C[C@@H]1CN(c2ncc(-c3cc(NC(=O)c4ccc(F)cc4C(F)(F)F)c(N4CCN(C)[C@H](C)C4)cc3F)cn2)CCO1 (stereo in doubt) [Example 452, 4-fluoro-N-[4-fluoro-2-[(3R)-3,4-dimethylpiperazin-1-yl]-5-[2-[(2R)-2-methylmorpholin-4-yl]pyrimidin-5-yl]phenyl]-2-(trifluoromethyl)benzamide] | 0.493 | – | 62 | –
CC1CN(c2cc(F)c(-c3cnc(N4CCNCC4)nc3)cc2NC(=O)c2cn(C)c(=O)cc2C(F)(F)F)CCN1C (stereo in doubt) [Example 464, N-[4-fluoro-5-(2-piperazin-1-ylpyrimidin-5-yl)-2-[(3R)-3,4-dimethylpiperazin-1-yl]phenyl]-1-methyl-6-oxo-4-(trifluoromethyl)pyridine-3-carboxamide] | 2.21 | – | 49 | –
C[C@@H]1CN(c2cc(F)c(-c3cccc(CN4CCOCC4)c3)cc2NC(=O)c2c[nH]c(=O)cc2C(F)(F)F)C[C@H](C)N1C [Example 52, N-(6-fluoro-3′-(morpholinomethyl)-4-((3R,5S)-3,4,5-trimethylpiperazin-1-yl)-[1,1′-biphenyl]-3-yl)-6-oxo-4-(trifluoromethyl)-1,6-dihydropyridine-3-carboxamide] | – | – | > 10000 | –
CN(C)C1CCN(c2cc(F)c(-c3cccc(CN4CCOCC4)c3)cc2NC(=O)c2c[nH]c(=O)cc2C(F)(F)F)C1 (stereo not drawn) [Example 53, N-(4-(3-(dimethylamino)pyrrolidin-1-yl)-6-fluoro-3′-(morpholinomethyl)-[1,1′-biphenyl]-3-yl)-6-oxo-4-(trifluoromethyl)-1,6-dihydropyridine-3-carboxamide] | – | – | > 10000 | –
COc1cc(N2C[C@@H](C)N(C)[C@@H](C)C2)c(NC(=O)c2c[nH]c(=O)cc2C(F)(F)F)cc1-c1cnc(N2CCOCC2)nc1 [Example 55, N-[4-methoxy-5-(2-morpholin-4-ylpyrimidin-5-yl)-2-[(3R,5S)-3,4,5-trimethylpiperazin-1-yl]phenyl]-6-oxo-4-(trifluoromethyl)-1H-pyridine-3-carboxamide] | – | – | 389 | –
CN1CCN(c2ccc(-c3cnc(N4CCOCC4)nc3)cc2NC(=O)c2c[nH]c(=O)cc2C(F)(F)F)CC1 [Example 56, N-(2-(4-methylpiperazin-1-yl)-5-(2-morpholinopyrimidin-5-yl)phenyl)-6-oxo-4-(trifluoromethyl)-1,6-dihydropyridine-3-carboxamide] | – | – | 435 | –
C[C@@H]1CN(c2ccc(-c3cnc(N4CCOCC4)nc3)cc2NC(=O)c2c[nH]c(=O)cc2C(F)(F)F)C[C@H](C)N1C [Example 58, N-(5-(2-morpholinopyrimidin-5-yl)-2-((3R,5S)-3,4,5-trimethylpiperazin-1-yl)phenyl)-6-oxo-4-(trifluoromethyl)-1,6-dihydropyridine-3-carboxamide] | – | – | 1470 | –
C[C@@H]1CN(c2ncc(-c3cc(NC(=O)c4c[nH]c(=O)cc4C(F)F)c(N4CCN(C)[C@@H](C)C4)cc3F)cn2)C[C@H](C)O1 [Example 395, 4-(difluoromethyl)-N-[4-fluoro-5-[2-[(2R,6S)-2,6-dimethylmorpholin-4-yl]pyrimidin-5-yl]-2-[(3S)-3,4-dimethylpiperazin-1-yl]phenyl]-6-oxo-1H-pyridine-3-carboxamide] | – | – | 31 | –
C[C@@H]1CN(c2cc(F)c(-c3cccc(N4CCOCC4)n3)cc2NC(=O)c2c[nH]c(=O)cc2C(F)(F)F)C[C@H](C)N1C [Example 473, N-[4-fluoro-5-(6-morpholin-4-ylpyridin-2-yl)-2-[(3R,5S)-3,4,5-trimethylpiperazin-1-yl]phenyl]-6-oxo-4-(trifluoromethyl)-1H-pyridine-3-carboxamide] | – | – | 32 | –
C[C@@H]1CN(c2cc(F)c(-c3ccnc(N(C)C)n3)cc2NC(=O)c2c[nH]c(=O)cc2C(F)(F)F)C[C@H](C)N1C [Example 540, N-[5-[2-(dimethylamino)pyrimidin-4-yl]-4-fluoro-2-[(3R,5S)-3,4,5-trimethylpiperazin-1-yl]phenyl]-6-oxo-4-(trifluoromethyl)-1H-pyridine-3-carboxamide] | – | – | 27 | –
